Measurements taken from the NIST ThermoML archive (doi:10.1021/je300134c).
Numbers after ± are expanded uncertainties.

Assay: xn = mol fraction of the nth substance listed
Settings: 101 kPa, Liquid; for speed of sound: Sing-around technique in a fixed-path interferometer; for mass density: Vibrating tube method

CCCCn1cc[n+](C)c1.O=S(=O)([O-])C(F)(F)F [1-butyl-3-methylimidazolium trifluoromethanesulfonate] + O
Settings | mass density, 288.15 K [kg/m3] | mass density, 298.15 K [kg/m3] | mass density, 308.15 K [kg/m3] | speed of sound, 288.15 K [m/s] | speed of sound, 298.15 K [m/s] | speed of sound, 308.15 K [m/s]
x1 = 0.05002 | 1122.78 ± 0.1 | 1116.95 ± 0.09 | 1110.67 ± 0.09 | 1539.5 ± 0.78 | 1538.2 ± 0.78 | 1533.5 ± 0.77
x1 = 0.09974 | 1178.77 ± 0.12 | 1171.65 ± 0.12 | 1164.25 ± 0.12 | 1524.8 ± 0.8 | 1514.3 ± 0.8 | 1501.6 ± 0.79
x1 = 0.1499 | 1211.09 ± 0.16 | 1203.38 ± 0.15 | 1195.48 ± 0.15 | 1510.4 ± 0.83 | 1494.8 ± 0.83 | 1477.9 ± 0.82
x1 = 0.3013 | 1257.47 ± 0.27 | 1249.32 ± 0.27 | 1241.1 ± 0.26 | 1474.6 ± 0.99 | 1453.8 ± 0.99 | 1432.7 ± 0.98
x1 = 0.3994 | 1272.13 ± 0.37 | 1263.98 ± 0.37 | 1255.79 ± 0.36 | 1459 ± 1.1 | 1437.3 ± 1.1 | 1415.6 ± 1.1
x1 = 0.4973 | 1281.71 ± 0.5 | 1273.59 ± 0.49 | 1265.46 ± 0.48 | 1447.6 ± 1.3 | 1425.5 ± 1.3 | 1403.5 ± 1.3
x1 = 0.5999 | 1289.22 ± 0.65 | 1281.16 ± 0.64 | 1273.1 ± 0.63 | 1438 ± 1.4 | 1415.7 ± 1.4 | 1393.6 ± 1.4
x1 = 0.6988 | 1294.59 ± 0.83 | 1286.57 ± 0.82 | 1278.56 ± 0.8 | 1431.6 ± 1.6 | 1408.8 ± 1.6 | 1386.5 ± 1.6
x1 = 0.8953 | 1302.01 ± 1.2 | 1294.08 ± 1.2 | 1286.15 ± 1.2 | 1420.5 ± 1.9 | 1397.7 ± 1.9 | 1375.5 ± 1.9
x1 = 1 | 1304.56 ± 1.5 | 1296.67 ± 1.5 | 1288.78 ± 1.5 | 1416 ± 2.1 | 1393 ± 2.1 | 1370.7 ± 2.1
